Laboratory results from patent US7342012B2, “Inhibitors of αLβ2 mediated cell adhesion” (Mitsubishi Tanabe Pharma Corporation, priority 1999, dated 2008).
Counter-ions that a name gives are not always drawn.

| Compound | melting point |
| --- | --- |
| NCC(=O)N[C@@H]1CN2C(=O)N(c3cc(Cl)nc(Cl)c3)C(=O)[C@@]2(Cc2ccc(OC(F)(F)F)cc2)C1 [Example 252, (5R, 7S)-5-[4-(Trifluoromethoxy)benzyl]-3-(2,6-dichloro-4-pyridyl)-7-aminoacetylamino-1,3-diazabicyclo[3.3.0]octane-2,4-dione] | 114 °C |
| O=C1CN2C(=O)N(c3cc(Cl)nc(Cl)c3)C(=O)[C@@]2(Cc2ccc(OC(F)(F)F)cc2)C1 [Example 70, (5R)-5-[4-(Trifluoromethoxy)benzyl]-3-(2,6-dichloro-4-pyridyl)-7-oxo-1,3-diazabicyclo[3.3.0]octane-2,4-dione] | 166 °C |
| N[C@@H]1CN2C(=O)N(c3cc(Cl)cc(Cl)c3)C(=O)[C@@]2(Cc2ccc(OC(F)(F)F)cc2)C1 [Example 300, (5R, 7S)-5-[4-(Trifluoromethoxy)benzyl]-3-(3,5-dichlorophenyl)-7-amino-1,3-diazabicyclo[3.3.0]octane-2,4-dione] | 43.3 °C |
| CC(=O)NC(CC(=O)N[C@@H]1CN2C(=O)N(c3cc(Cl)nc(Cl)c3)C(=O)[C@@]2(Cc2ccc(OC(F)(F)F)cc2)C1)C(N)=O (stereo partly drawn) [Example 256, (5R, 7S)-5-[4-(Trifluoromethoxy)benzyl]-3-(2,6-dichloro-4-pyridyl)-7-[(3-carbamoyl-3-acetylaminopropanoyl)amino]-1,3-diazabicyclo[3.3.0]octane-2,4-dione] | 152.8 °C |
| N#Cc1ccc(C(=O)C23CCCN2C(=O)N(c2cc(Cl)cc(Cl)c2)C3=O)cc1 (stereo not drawn) [Example 112, 5-(4-Cyanobenzoyl)-3-(3,5-dichlorophenyl)-1,3-diazabicyclo[3.3.0]octane-2,4-dione] | 72.1 °C |
| CC(C)(C)OC(=O)c1ccc(C(=O)N[C@H]2CN3C(=O)N(c4cc(Cl)cc(Cl)c4)C(=O)[C@@]3(Cc3ccc(Br)cc3)C2)cc1 [Example 80, (5R, 7R)-5-(4-Bromobenzyl)-3-(3,5-dichlorophenyl)-7-(4-t-butoxycarbonylbenzoylamino)-1,3-diazabicyclo[3.3.0]octane-2,4-dione] | 112 °C |
| CC(C)(C)OC(=O)N1CCN2C(=O)N(c3cc(Cl)cc(Cl)c3)C(=O)C2(Cc2ccc(Br)cc2)C1 (stereo not drawn) (as salt: Na) [Example 26, 4-(tert-Butoxycarbonyl)-6-(4-bromobenzyl)-8-(3,5-dichlorophenyl)-1,4,8-triazabicyclo[4.3.0]nonane-7,9-dione] | 79.5 °C |
| CC(C)(C)OC(=O)c1c(Cl)cc(N2C(=O)N3CCCC3(Cc3ccc(Br)cc3)C2=O)cc1Cl (stereo not drawn) [Example 225, 5-(4-Bromobenzyl)-3-[3,5-dichloro-4-(t-butoxycarbonyl)phenyl]-1,3-diazabicyclo[3.3.0]octane-2,4-dione] | 109 to 110 °C |
| O=C1N(c2cc(Cl)nc(Cl)c2)C(=O)C2(Cc3ccc(Br)cc3)CCCNN12 (stereo not drawn) [Example 100, 6-(4-Bromobenzyl)-8-(2,6-dichloro-4-pyridyl)-1,2,8-triazabicyclo[4.3.0] nonan-7,9-dione] | 190 °C (dec.) |
| O=C(N[C@@H]1CN2C(=O)N(c3cc(Cl)nc(Cl)c3)C(=O)[C@@]2(Cc2ccc(OC(F)(F)F)cc2)C1)c1ccncc1 [Example 67, (5R,7S)-5-[4-(Trifluoromethoxy)benzyl]-3-(2,6-dichloro-4-pyridyl)-7-(isonicotinoylamino)-1,3-diazabicyclo[3.3.0]octane-2,4-dione] | 148 °C |
| O=C1N(c2cc(C(F)(F)F)cc(C(F)(F)F)c2)C(=O)C2(Cc3ccc(Br)cc3)CCCN12 (stereo not drawn) | 138 °C |
| CN(C)CCCC(=O)N[C@@H]1CN2C(=O)N(c3cc(Cl)cc(Cl)c3)C(=O)[C@@]2(Cc2ccc(OC(F)(F)F)cc2)C1 [Example 302, (5R, 7S)-5-[4-(Trifluoromethoxy)benzyl]-3-(3,5-dichlorophenyl)-7-[[4-(dimethylamino)butyryl]amino]-1,3-diazabicyclo[3.3.0]octane-2,4-dione] | 57.9 °C |
| O=C(O)c1cc(C(=O)O)cc(N2C(=O)N3CCCC3(Cc3ccc(Br)cc3)C2=O)c1 (stereo not drawn) [Example 236] | 259 °C (dec.) |
| CCCCC(=O)N[C@@H]1CN2C(=O)N(c3cc(Cl)nc(Cl)c3)C(=O)[C@@]2(Cc2ccc(OC(F)(F)F)cc2)C1 [Example 286, (5R, 7S)-5-[4-(Trifluoromethoxy)benzyl]-3-(2,6-dichloro-4-pyridyl)-7-valerylamino-1,3-diazabicyclo[3.3.0]octane-2,4-dione] | 66.8 °C |
| CC(=O)N[C@@H]1CN2C(=O)N(c3cc(Cl)nc(Cl)c3)C(=O)[C@@]2(Cc2ccc(OC(F)(F)F)cc2)C1 [Example 64, (5R,7S)-5-[4-(Trifluoromethoxy)benzyl]-3-(2,6-dichloro-4-pyridyl)-7-acetamido-1,3-diazabicyclo[3.3.0]octane-2,4-dione] | 126.9 °C |
| O=C1N(c2cc(Cl)nc(Cl)c2)C(=O)C2(Cc3ccc(OC(F)(F)F)cc3)C[C@H](n3cccc3)CN12 (stereo in doubt) [Example 251, (5R, 7S)-5-[4-(Trifluoromethoxy)benzyl]-3-(2,6-dichloro-4-pyridyl)-7-(1-pyrrolyl)-1,3-diazabicyclo[3.3.0]octane-2,4-dione] | 129.5 °C |
| COC(=O)C=C1CN2C(=O)N(c3cc(Cl)cc(Cl)c3)C(=O)C2(Cc2ccc(Br)cc2)C1 (stereo not drawn) [Example 36, 5-(4-Bromobenzyl)-3-(3,5-dichlorophenyl)-7-methoxycarbonylmethylene-1,3-diazabicyclo[3.3.0]octane-2,4-dione] | 74.9 °C |
| COc1cc(OC)cc(N2C(=O)N3CCCC3(Cc3ccc(Br)cc3)C2=O)c1 (stereo not drawn) [Example 235] | 154.8 °C |
| O=C(O)CNC(=O)c1c(Cl)cc(N2C(=O)N3CCCC3(Cc3ccc(Br)cc3)C2=O)cc1Cl (stereo not drawn) [Example 227, 5-(4-Bromobenzyl)-3-[3,5-dichloro-4-(carboxymethylcarbamoyl)phenyl]-1,3-diazabicyclo[3.3.0]octane-2,4-dione] | 157 to 158 °C |
| NC(=O)C1CN2C(=O)N(c3cc(Cl)cc(Cl)c3)C(=O)C2(Cc2ccc(OC(F)(F)F)cc2)C1 (stereo not drawn) [Example 317] | 140.3 °C |

The remaining lines, values ahead:

| melting point | Compound |
| --- | --- |
| 51 °C | COC(=O)c1ccc(CC23CCCCN2C(=O)N(c2cc(Cl)cc(Cl)c2)C3=O)cc1 (stereo not drawn) [Example 155, 6-(4-Methoxycarbonylbenzyl)-8-(3,5-dichlorophenyl)-1,8-diazabicyclo[4.3.0]nonane-7,9-dione] |
| 276.5 °C | O=C1N(c2cc(Cl)cc(Cl)c2)C(=O)C2(Cc3ccc(-c4cccnc4)cc3)CCCCN12 (stereo not drawn) [Example 7, 6-[4-(3-Pyridyl)benzyl]-8-(3,5-dichlorophenyl)-1,8-diazabicyclo[4.3.0]nonane-7,9-dione] |
| 122.2 °C | N#Cc1ccc(CC23CCCN2C(=O)N(c2cc(Cl)cc(Cl)c2N)C3=O)cc1 (stereo not drawn) [Example 240, 5-(4-Cyanobenzyl)-3-(2-amino-3,5-dichlorophenyl)-1,3-diazabicyclo[3.3.0]octane-2,4-dione] |
| 72.5 °C | O=C1N(c2cc(Cl)cc(Cl)c2)C(=O)C2(Cc3ccc(S(=O)(=O)C(F)(F)F)cc3)CCCN12 (stereo not drawn) [Example 311] |
| 72 to 73 °C | O=C1N(c2cc(Cl)cc(Cl)c2)C(=O)C2(Cc3ccc(-c4ccc([N+](=O)[O-])cc4)cc3)CCCN12 (stereo not drawn) [Example 114, 5-[4-(4-Nitrophenyl)benzyl]-3-(3,5-dichlorophenyl)-1,3-diazabicyclo[3.3.0]octane-2,4-dione] |
| 123.5 °C | O=C1N(c2cc(Cl)cc(Cl)c2)C(=O)C2(Cc3ccc(Br)cc3)C[C@@H](c3ccccc3)CN12 (stereo partly drawn) [Example 83, (7S)-5-(4-Bromobenzyl)-3-(3,5-dichlorophenyl)-7-phenyl-1,3-diazabicyclo[3.3.0]octane-2,4-dione] |
| 71.3 °C | COC(=O)/C=C/c1cccc(-c2ccc(CC34CCCN3C(=O)N(c3cc(Cl)cc(Cl)c3)C4=O)cc2)c1 (stereo not drawn) [Example 224, (E)-5-[4-[3-(2-Methoxycarbonyl)vinylphenyl]benzyl]-3-(3,5-dichlorophenyl)-1,3-diazabicyclo[3.3.0]octane-2,4-dione] |
| 64.4 °C | N[C@@H]1CN2C(=O)N(c3cc(Cl)cc(Cl)c3)C(=O)[C@@]2(Cc2ccc(Br)cc2)C1 [Example 47, (5R,7S)-5-(4-Bromobenzyl)-3-(3,5-dichlorophenyl)-7-amino-1,3-diazabicyclo[3.3.0]octane-2,4-dione] |
| 256.2 °C (dec.) | O=C(O)c1ccc(CC23CCCCN2C(=O)N(c2cc(Cl)cc(Cl)c2)C3=O)cc1 (stereo not drawn) [Example 156] |
| 150.2 °C | O=C(Nc1ccccc1)Nc1cccc(-c2ccc(CC34CCCN3C(=O)N(c3cc(Cl)cc(Cl)c3)C4=O)cc2)c1 (stereo not drawn) [Example 126, 5-[4-[3-(Phenylureido)phenyl]benzyl]-3-(3,5-dichlorophenyl)-1,3-diazabicyclo[3.3.0]octane-2,4-dione] |
| 123.9 °C | CC(=O)Nc1ccc(-c2ccc(CC34CCCN3C(=O)N(c3cc(Cl)cc(Cl)c3)C4=O)cc2)cc1 (stereo not drawn) [Example 116, 5-[4-(4-Acetylaminophenyl)benzyl]-3-(3,5-dichlorophenyl)-1,3-diazabicyclo[3.3.0]octane-2,4-dione] |
| 62 °C | O=C1N(c2cc(Cl)c(OCc3ccccc3)c(Cl)c2)C(=O)C2(Cc3ccc(Br)cc3)CCCN12 (stereo not drawn) [Example 138, 5-(4-Bromobenzyl)-3-[3,5-dichloro-4-(benzyloxy)phenyl]-1,3-diazabicyclo[3.3.0]octane-2,4-dione] |
| 278 °C (dec.) | Nc1ccc(-c2ccc(CC34CCCN3C(=O)N(c3cc(Cl)cc(Cl)c3)C4=O)cc2)cc1 (stereo not drawn) [Example 115, 5-[4-(4-Aminophenyl)benzyl]-3-(3,5-dichlorophenyl)-1,3-diazabicyclo[3.3.0]octane-2,4-dione] |
| 69.4 °C | O=C1N(c2cc(Cl)cc(Cl)c2)C(=O)C2(Cc3ccc(Br)cc3)CCCN12 (stereo not drawn) [Example 1, 5-(4-Bromobenzyl)-3-(3,5-dichlorophenyl)-1,3-diazabicyclo[3.3.0]octane-2,4-dione] |
| 96 °C | N#Cc1ccc(CC23CCCN2C(=O)N(c2cc(Cl)nc(Cl)c2)C3=O)cc1 (stereo not drawn) [Example 130, 5-(4-Cyanobenzyl)-3-(2,6-dichloro-4-pyridyl)-1,3-diazabicyclo[3.3.0]octane-2,4-dione] |
| 80.3 °C | CS(=O)(=O)c1ccc(CC23CCCN2C(=O)N(c2cc(Cl)cc(Cl)c2)C3=O)cc1 (stereo not drawn) [Example 190, 5-(4-Methylsulfonylbenzyl)-3-(3,5-dichlorophenyl)-1,3-diazabicyclo[3.3.0]octane-2,4-dione] |
